According to patent US12102639B2, “Imipridones for gliomas” (Oncoceutics, Inc., priority 2017, dated 2024):
“Also recorded” adds a separate entry of the source.

Assays:
[1] = system: DRD2 (short and long isoforms); assay: GPCR β-arrestin recruitment reporter assay, DRD2; assay type: cell-based; details: for activity at DRD2: arrestin recruitment reporter assay
DRD5 = DRD5 (Homo sapiens, UniProt P21918); assay: GPCR β-arrestin recruitment reporter assay, DRD5; assay type: cell-based
[2] = system: recurrent high grade glioma; assay: Progression-free survival of patients with recurrent high grade glioma; assay type: in vivo, human; details: H3 K27M (n=15) vs wild-type or unknown H3 status (n=35)
Description: In one study of thirty-nine pediatric diffuse intrinsic pontine gliomas, DIPG patients carrying the K27M-H3.3 mutation (n=30) have worse overall survival compared to patients wild-type (n=9) for this histone (Khoung-Quang et al., Acta Neuropathol (2012) 124:439). […] The cohort is divided into two groups: one with known H3 K27M mutation (n=15) and the other with wild-type or unknown H3 status (n=35).

[3] = system: temozolomide-resistant high-grade glioma xenografts; assay: High-grade glioma xenografts in mice; assay type: in vivo
[4] = system: GDSC collection of cell lines; assay: Genomic of Drug Sensitivity in Cancer (GDSC) cell line collection; assay type: cell-based, human; details: cell viability at 72 hours post-treatment
Description: FIG. 2. Tumor type sensitivity of the Genomic of Drug Sensitivity in Cancer program (GDSC) cell line collection. […] Numbers above the bar indicates indicate the number of cell lines per tumor type.
High expression of DRD2 occurred in primary, rather than secondary, glioblastoma and was associated with a poor prognosis. […] Resistance could be recapitulated with overexpression of the mutant DRD5 gene or, to a lesser extent, with the wild-type gene.

DRD4 = DRD4 (Homo sapiens, UniProt P21917); details: arrestin recruitment reporter assay
DRD2 = DRD2 (Homo sapiens, UniProt P14416); details: relative to antipsychotics
MV411 AML cells = assay: MV411 AML xenograft model; details: 50 mg/kg, oral weekly administration (ONC201 at similar doses)
[5] = system: tumor cells (HCT116, MDA-MB-231, U87); assay: Cell viability of tumor cells after 72 hours; details: Homo sapiens, read-out: viability of tumor cells
[6] = system: H3.3 K27M mutant diffuse intrinsic pontine glioma (DIPG); assay: Treatment of girls with H3.3 K27M mutant DIPG; details: for symptoms / radiographic evaluation of tumor: child
[7] = Phase II recurrent glioblastoma trial (NCT02525692); details: human, in vivo, 625 mg
recurrent glioblastoma = assay: as above
GPCRs = assay: In vitro profiling of GPCR activity (arrestin recruitment panel)
[8] = system: NCI60 cancer cell line panel; assay: NCI60 cancer cell line panel; assay type: cell-based; details: NCI60 panel (FIG. 4)
[9] = system: Ewing's sarcoma cell lines; assay: Ewing's sarcoma cell lines; assay type: cell-based; details: 16 Ewing's sarcoma cell lines (FIG. 6, 7)
[10] = system: patient-derived glioma stem cell (GSC) populations; assay: Patient-derived glioma stem cell assays (CellTiter-Glo, limiting dilution, sphere formation); assay type: cell-based, human
Description: In silico analysis of a glioma patient database led to investigation of DRD2 signaling in glioma; alteration of DRD2 mRNA expression was directly connected to global gene expression change in the glioma patient database.

Bone cancer = Bone cancer responsiveness; assay type: cell-based; details: FIG. 5
HFF (Normal Fibroblast) = assay: Cell viability of HFF normal fibroblasts; details: therapeutic doses, Table 5
several cell lines = assay: In vitro potency in several cell lines (Table 5)
DRD3 = DRD3 (Homo sapiens, UniProt P35462); assay: GPCR β-arrestin recruitment reporter assay, DRD3; assay type: cell-based
GPR132 = target: T1, GPR132 (Homo sapiens, UniProt Q9UNW8); assay: GPCR arrestin recruitment reporter assay, GPR132; assay type: cell-based; details: for activity at GPR132: arrestin recruitment reporter assay
T1 construct: expressed in transfected cells
T1 sequence (Q9UNW8 1-380): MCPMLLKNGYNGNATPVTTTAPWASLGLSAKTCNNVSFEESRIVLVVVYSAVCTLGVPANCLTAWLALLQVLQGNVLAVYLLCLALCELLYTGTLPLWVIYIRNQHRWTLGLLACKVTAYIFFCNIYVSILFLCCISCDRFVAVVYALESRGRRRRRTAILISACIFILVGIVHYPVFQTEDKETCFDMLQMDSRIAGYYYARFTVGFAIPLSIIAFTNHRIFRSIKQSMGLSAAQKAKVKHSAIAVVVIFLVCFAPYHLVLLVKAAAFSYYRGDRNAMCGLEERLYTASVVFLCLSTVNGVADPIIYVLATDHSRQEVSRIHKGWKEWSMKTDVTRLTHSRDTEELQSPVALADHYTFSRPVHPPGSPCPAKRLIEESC
Method: (§1) Dual targeting of DRD2/3 and GPR132/91 represents a novel strategy for anti-cancer efficacy without toxicity. […] The safety profile of ONC213 confirmed in mouse MTD study with NOAEL 75 mg/kg three times that of ONC212 (25 mg/kg).
(§2) ONC201 dihydrochloride was obtained from Oncoceutics.

GPR91 = target: T2, GPR91 (Homo sapiens, UniProt Q9BXA5); assay: GPCR arrestin recruitment reporter assay, GPR91; assay type: cell-based
T2 construct: expressed in transfected cells
Method: as §1, §2

CXCR7 = target: T3, CXCR7 (Homo sapiens, UniProt P25106); assay: GPCR arrestin recruitment reporter assay, CXCR7; assay type: cell-based
T3 construct: expressed in transfected cells
Description: as §2

HCT116 cells = assay: Anticancer efficacy in HCT116 cells; assay type: cell-based, human; details: HCT116 cells
DRD2L = DRD2L (Homo sapiens, UniProt P14416); assay: Arrestin recruitment to DRD2L, Gaddum/Schild EC50 shift analysis; assay type: cell-based
[11] = 17 patients, 625 mg every three weeks

DRD5, sequence (P21918 whole entry): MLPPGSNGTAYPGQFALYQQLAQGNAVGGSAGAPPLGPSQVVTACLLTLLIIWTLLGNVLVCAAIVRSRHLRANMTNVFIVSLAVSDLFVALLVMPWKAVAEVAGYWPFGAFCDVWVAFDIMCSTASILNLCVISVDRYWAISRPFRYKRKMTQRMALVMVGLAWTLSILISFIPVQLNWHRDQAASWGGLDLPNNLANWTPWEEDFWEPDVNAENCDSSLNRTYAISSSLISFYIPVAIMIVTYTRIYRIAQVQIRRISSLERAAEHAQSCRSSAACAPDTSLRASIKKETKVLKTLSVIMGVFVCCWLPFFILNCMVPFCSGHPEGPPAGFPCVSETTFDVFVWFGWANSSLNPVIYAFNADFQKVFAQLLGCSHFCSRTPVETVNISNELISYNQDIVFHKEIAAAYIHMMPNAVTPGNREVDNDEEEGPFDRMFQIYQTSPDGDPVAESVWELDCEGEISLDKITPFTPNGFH
T3 sequence (P25106 whole entry): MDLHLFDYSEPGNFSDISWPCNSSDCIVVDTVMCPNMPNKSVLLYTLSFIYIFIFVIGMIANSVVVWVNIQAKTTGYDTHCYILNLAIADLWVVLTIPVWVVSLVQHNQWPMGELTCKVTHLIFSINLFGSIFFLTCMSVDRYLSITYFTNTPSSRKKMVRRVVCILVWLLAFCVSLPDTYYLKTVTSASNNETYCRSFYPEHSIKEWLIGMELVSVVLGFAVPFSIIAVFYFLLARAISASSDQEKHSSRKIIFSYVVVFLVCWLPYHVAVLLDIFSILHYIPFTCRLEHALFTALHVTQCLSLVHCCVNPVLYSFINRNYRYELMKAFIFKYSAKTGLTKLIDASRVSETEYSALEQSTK
T2 sequence (Q9BXA5 whole entry): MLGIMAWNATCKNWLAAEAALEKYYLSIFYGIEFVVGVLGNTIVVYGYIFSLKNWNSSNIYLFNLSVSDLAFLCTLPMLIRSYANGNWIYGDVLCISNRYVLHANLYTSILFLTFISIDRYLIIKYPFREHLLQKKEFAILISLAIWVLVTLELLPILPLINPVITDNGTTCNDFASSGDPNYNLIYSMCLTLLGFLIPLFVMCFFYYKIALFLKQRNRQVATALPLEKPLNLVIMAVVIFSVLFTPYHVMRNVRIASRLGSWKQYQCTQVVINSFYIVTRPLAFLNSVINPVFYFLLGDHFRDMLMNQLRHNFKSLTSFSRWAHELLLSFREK
DRD2L, sequence (P14416 whole entry): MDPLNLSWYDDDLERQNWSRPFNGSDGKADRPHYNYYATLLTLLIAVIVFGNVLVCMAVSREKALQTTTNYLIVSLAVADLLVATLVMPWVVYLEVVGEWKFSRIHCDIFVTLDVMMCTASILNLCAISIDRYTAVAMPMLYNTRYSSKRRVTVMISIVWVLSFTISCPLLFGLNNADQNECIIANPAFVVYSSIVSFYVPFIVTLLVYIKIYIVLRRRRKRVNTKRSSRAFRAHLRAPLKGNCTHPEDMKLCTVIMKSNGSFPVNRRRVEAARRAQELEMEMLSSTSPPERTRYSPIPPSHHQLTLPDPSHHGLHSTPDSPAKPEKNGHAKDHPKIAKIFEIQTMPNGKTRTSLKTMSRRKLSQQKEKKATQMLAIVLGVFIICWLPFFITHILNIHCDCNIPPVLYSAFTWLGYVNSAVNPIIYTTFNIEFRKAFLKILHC
DRD2, sequence (P14416 whole entry): as above
DRD4, sequence (P21917 whole entry): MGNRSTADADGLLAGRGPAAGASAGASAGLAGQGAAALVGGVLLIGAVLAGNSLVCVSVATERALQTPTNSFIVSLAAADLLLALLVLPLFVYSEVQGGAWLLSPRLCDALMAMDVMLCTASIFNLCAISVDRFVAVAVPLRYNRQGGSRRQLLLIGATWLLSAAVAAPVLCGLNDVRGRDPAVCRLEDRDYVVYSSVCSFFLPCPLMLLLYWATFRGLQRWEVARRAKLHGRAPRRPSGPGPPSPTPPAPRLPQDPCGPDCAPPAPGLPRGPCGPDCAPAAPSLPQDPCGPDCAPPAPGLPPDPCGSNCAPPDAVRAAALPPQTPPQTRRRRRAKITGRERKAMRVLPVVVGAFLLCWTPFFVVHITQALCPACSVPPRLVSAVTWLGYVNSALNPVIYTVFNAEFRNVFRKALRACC
DRD3, sequence (P35462 whole entry): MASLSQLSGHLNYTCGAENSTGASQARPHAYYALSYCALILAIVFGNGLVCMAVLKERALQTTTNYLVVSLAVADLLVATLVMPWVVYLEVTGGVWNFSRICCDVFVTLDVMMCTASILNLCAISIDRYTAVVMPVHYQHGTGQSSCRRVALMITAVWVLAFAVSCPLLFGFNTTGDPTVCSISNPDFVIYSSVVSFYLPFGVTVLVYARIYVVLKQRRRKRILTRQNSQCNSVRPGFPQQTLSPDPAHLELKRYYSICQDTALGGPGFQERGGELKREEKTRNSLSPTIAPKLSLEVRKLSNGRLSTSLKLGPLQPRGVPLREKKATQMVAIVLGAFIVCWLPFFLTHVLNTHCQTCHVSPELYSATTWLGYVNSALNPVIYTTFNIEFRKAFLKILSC

Compound: Cc1ccccc1CN1C(=O)C2=C(CCN(Cc3ccccc3)C2)N2CCN=C12 [ONC201, 7-benzyl-4-(2-methylbenzyl)-1,2,6,7,8,9-hexahydroimidazo [1,2-a]pyrido [3,4-e]pyrimidin-5(1H)-one]
- activity at DRD2 [1]: selectively antagonizes; also recorded: antagonized
- activity at DRD5 (DRD5): no antagonism; also recorded: but not D1-like (DRD1/5)
- progression-free survival (PFS) [2]: superior progression-free survival (PFS) in H3 K27M patients
- survival of mice with orthotopic xenografts ([3]; monoagent and in combination with bevacizumab): prolongs the survival
- effect on xenografts ([3]; temozolomide-resistant high-grade glioma xenografts): shrinks
- in vitro efficacy profiling [4]: broad anti-cancer efficacy with high sensitivity in human brain cancer cell lines
- activity at DRD4 (DRD4): weaker potency
- interactions with the kinome (kinome): no significant interactions
- association rate for DRD2 (DRD2): very slow
- leukemia xenograft tumor growth (MV411 AML cells): not efficacious
- viability at 5000 µg/mL [5]: < 25%
- symptoms ([6]; 125 mg once weekly): complete resolution of their inability to use their left arm and hand
- radiographic evaluation of tumor ([6]; 125 mg once weekly, after 6 weeks): stable tumor lesion
- symptoms ([6]; 500 mg once weekly): near-complete resolution of their facial palsy; also recorded: improvement in facial palsy
- radiographic evaluation of tumor ([6]; 500 mg once weekly, after 16 weeks): significant regression; also recorded: shrinkage of lesion
- tolerability ([6]; once weekly dosing): tolerates the therapy well
- concentration at 2 h [7]: 2600 ng/mL
- Median OS (recurrent glioblastoma; [11]): 41.6 weeks
- OS12 (recurrent glioblastoma; [11]): 35%
- regression (recurrent glioblastoma; one patient, 625 mg every three weeks, after 15 months of therapy): 92%
- time on study (recurrent glioblastoma; person one): > 10 weeks
- response (recurrent glioblastoma; person one, H3 K27M, first on-treatment evaluation at 8 weeks): complete disappearance of malignant lesions; also recorded: complete disappearance of tumor lesions
- time on therapy with durable response (recurrent glioblastoma; person two): > 1.5 years
- response (recurrent glioblastoma; person two, H3.3 K27M mutant, 625 mg once every three weeks): durable objective response with complete regression of thalamic lesions
- overall tumor size regression (recurrent glioblastoma; person two, H3.3 K27M mutant, 625 mg once every three weeks, after 18 doses): 96%
- serum prolactin (recurrent glioblastoma; surrogate marker of target engagement): serum prolactin induction was observed; also recorded: significant induction of serum prolactin
- GPCR profile (GPCRs): Antagonism of adrenoceptor alpha receptors or other GPCRs was not observed

Compound: O=C1C2=C(CCN(Cc3ccccc3)C2)N2CCN=C2N1Cc1cccs1 [ONC203]
- anti-cancer efficacy [8]: inactive negative control

Compound: O=C1C2=C(CCN(Cc3ccccc3)C2)N2CCN=C2N1Cc1ccc(F)cc1F [ONC206]
- activity at DRD2 [1]: selective DRD2 antagonism
- anti-cancer efficacy [8]: demonstrated anti-cancer efficacy across various tumor types
- anti-cancer efficacy [9]: most ONC206 responsive bone cancer subtype; also recorded: nanomolar range in 14 out of 16 Ewing's sarcoma cell lines
- effect on glioma stem cells ([10]; CellTiter-Glo cell viability, compared to differentiated glioma cells): potently inhibits; also recorded: preferentially eliminated GSCs
- tumor sphere formation ([10]; in vitro limiting dilution assay and sphere formation analysis): prevented tumor sphere formation and tumor growth
- responsiveness (Bone cancer): more responsive to ONC206 than ONC201
- in vitro toxicity to normal cells (HFF (Normal Fibroblast)): no in vitro toxicity to normal cells at therapeutic doses
- improvement in in vitro potency compared to ONC201 (several cell lines): up to 20 fold

Compound: O=C1C2=C(CCN(Cc3ccccc3)C2)N2CCN=C2N1Cc1ccc(F)c(F)c1 [ONC213]
- activity at DRD2 [1]: inhibitor
- DRD2/3 potency ([1]; rank against other imipridones): more than ONC201 but less than ONC206
- activity at DRD3 (DRD3): inhibitor
- activity at GPR132 (GPR132): agonist
- GPR132 potency (GPR132; rank against other imipridones): less than ONC212
- activity at GPR91 (GPR91): agonist

Compound: O=C1C2=C(CCN(Cc3ccc(Cl)c(Cl)c3)C2)N2CCN=C2N1Cc1ccc(C(F)(F)F)cc1 [ONC234]
- activity at DRD2 [1]: antagonist activity
- activity at DRD5 (DRD5): antagonist activity
- activity at CXCR7 (CXCR7; arrestin recruitment reporter assay): agonist activity
- GPCR profile (GPCRs): broad spectrum and potent GPCR targeting small molecule

Compound: O=C1C2=C(CCN(Cc3ccsc3)C2)N2CCN=C2N1Cc1ccc(C(F)(F)F)cc1 [ONC236]
- IC50 (HCT116 cells): 234 nM
- IC50 (HCT116 cells; Homo sapiens, HCT-116): 88 nM
- activity at GPR132 (GPR132): highly selective GPR132 agonist

Compound: O=C1C2=C(CCN(CC(O)c3ccccc3)C2)N2CCN=C2N1Cc1ccc(C(F)(F)F)cc1 (centres unmarked) [ONC237]
- activity at DRD5 (DRD5): antagonist
- activity at GPR132 (GPR132): agonist

Compound: Cc1ccccc1CN1C2=NCCN2C(=O)C2=C1CCN(Cc1ccccc1)C2 [TIC-10, reference compound]
- activity at CXCR7 (CXCR7; statement in the description, no method given): CXCR7 agonist

Compound: TIC-10
- inhibition of DRD2L (DRD2L): did not inhibit
